#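 A five-concentration, 48-hour dose response in 96-well plates underlies each endpoint, interpolated linearly between surrounding concentrations. Here, GI50 denotes the concentration required for 50% inhibition of growth.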 The source made the active and inactive calls. Rule as the data show it: active = GI50 up to about 1.1 µM and inactive = higher.
# Columns and labels:
# Test in all cases: DTP human tumour cell line panel, 48 h
# CAKI-1 = test system: CAKI-1
# HL-60 = test system: HL-60
# UACC-257 = test system: UACC-257
# SF-268 = test system: SF-268
# A498 = test system: A498
# 786-0 = test system: 786-0
# RXF 393 = test system: RXF 393
# Malme-3M = test system: Malme-3M
# SN12C = test system: SN12C
# SK-MEL-5 = test system: SK-MEL-5
# HCT-15 = test system: HCT-15
# KM12 = test system: KM12
# NCI-H460 = test system: NCI-H460
# OVCAR-5 = test system: OVCAR-5
# NCI-H522 = test system: NCI-H522
# OVCAR-8 = test system: OVCAR-8
# SNB-75 = test system: SNB-75
# SK-OV-3 = test system: SK-OV-3
# LXFL 529 = test system: LXFL 529
# CCRF-CEM = test system: CCRF-CEM
# DMS-114 = test system: DMS-114
# MOLT-4 = test system: MOLT-4
# M19-MEL = test system: M19-MEL
# HOP-62 = test system: HOP-62
# SNB-19 = test system: SNB-19
# HCT-116 = test system: HCT-116
# HOP-18 = test system: HOP-18
# LOX IMVI = test system: LOX IMVI
# SK-MEL-2 = test system: SK-MEL-2
# OVCAR-3 = test system: OVCAR-3
# NCI-H226 = test system: NCI-H226
# DMS-273 = test system: DMS-273
# SW-620 = test system: SW-620
# OVCAR-4 = test system: OVCAR-4
# U-251 = test system: U-251
# NCI-H23 = test system: NCI-H23
# EKVX = test system: EKVX
# ACHN = test system: ACHN
# KM-20L2 = test system: KM-20L2
# SNB-78 = test system: SNB-78
# UACC-62 = test system: UACC-62
# SR = test system: SR
# HT-29 = test system: HT-29
# RXF 631 = test system: RXF 631
# XF498 = test system: XF498
# IGROV-1 = test system: IGROV-1
# M14 = test system: M14
# TK-10 = test system: TK-10
# SF-539 = test system: SF-539
# HCC 2998 = test system: HCC 2998
# K562 = test system: K562
# SF-295 = test system: SF-295
# A549 = test system: A549
# DLD-1 = test system: DLD-1
# UO-31 = test system: UO-31
# COLO 205 = test system: COLO 205
# SK-MEL-28 = test system: SK-MEL-28
# HOP-92 = test system: HOP-92
# RPMI-8226 = test system: RPMI-8226
compound,measurement,setting,value
CCSC1(SCC)CCN(/C=N/C(C)(C)C)C1,GI50,CAKI-1,> 100 µM (inactive)
same,GI50,HL-60,29.7 µM (inactive)
same,GI50,UACC-257,> 100 µM (inactive)
same,GI50,SF-268,> 100 µM (inactive)
same,GI50,A498,> 100 µM (inactive)
same,GI50,786-0,> 100 µM (inactive)
same,GI50,RXF 393,67.8 µM (inactive)
same,GI50,Malme-3M,> 100 µM (inactive)
same,GI50,SN12C,> 100 µM (inactive)
same,GI50,SK-MEL-5,> 100 µM (inactive)
same,GI50,HCT-15,> 100 µM
same,GI50,KM12,> 100 µM (inactive)
same,GI50,NCI-H460,> 100 µM (inactive)
same,GI50,OVCAR-5,> 100 µM (inactive)
same,GI50,NCI-H522,> 100 µM (inactive)
same,GI50,OVCAR-8,> 100 µM (inactive)
same,GI50,SNB-75,> 100 µM (inactive)
same,GI50,SK-OV-3,> 100 µM (inactive)
same,GI50,LXFL 529,> 100 µM (inactive)
same,GI50,CCRF-CEM,76.4 µM (inactive)
same,GI50,DMS-114,44.7 µM (inactive)
same,GI50,MOLT-4,> 100 µM (inactive)
same,GI50,M19-MEL,> 100 µM (inactive)
same,GI50,HOP-62,> 100 µM (inactive)
same,GI50,SNB-19,> 100 µM (inactive)
same,GI50,HCT-116,78 µM (inactive)
same,GI50,HOP-18,> 100 µM (inactive)
same,GI50,LOX IMVI,52.6 µM (inactive)
same,GI50,SK-MEL-2,> 100 µM (inactive)
same,GI50,OVCAR-3,> 100 µM (inactive)
same,GI50,NCI-H226,> 100 µM (inactive)
same,GI50,DMS-273,> 100 µM (inactive)
same,GI50,SW-620,19.5 µM (inactive)
same,GI50,OVCAR-4,> 100 µM (inactive)
same,GI50,U-251,> 100 µM (inactive)
same,GI50,NCI-H23,> 100 µM (inactive)
same,GI50,EKVX,> 100 µM (inactive)
same,GI50,ACHN,> 100 µM (inactive)
same,GI50,KM-20L2,> 100 µM (inactive)
same,GI50,SNB-78,> 100 µM (inactive)
same,GI50,UACC-62,> 100 µM (inactive)
same,GI50,SR,> 100 µM (inactive)
same,GI50,HT-29,> 100 µM (inactive)
same,GI50,RXF 631,> 100 µM (inactive)
same,GI50,XF498,> 100 µM (inactive)
same,GI50,IGROV-1,> 100 µM (inactive)
same,GI50,M14,> 100 µM (inactive)
same,GI50,TK-10,> 100 µM (inactive)
same,GI50,SF-539,> 100 µM (inactive)
same,GI50,HCC 2998,> 100 µM (inactive)
same,GI50,K562,> 100 µM (inactive)
same,GI50,SF-295,> 100 µM (inactive)
same,GI50,A549,> 100 µM (inactive)
same,GI50,DLD-1,62.4 µM (inactive)
same,GI50,UO-31,> 100 µM (inactive)
same,GI50,COLO 205,54.7 µM (inactive)
same,GI50,SK-MEL-28,> 100 µM (inactive)
Nc1ccc(C(=O)N/C(=C\c2cccc([N+](=O)[O-])c2)c2nc3c4c(ccc3[nH]2)C(=O)c2ccccc2C4=O)cc1,GI50,CAKI-1,8.69 µM (inactive)
same,GI50,UACC-257,> 100 µM (inactive)
same,GI50,SF-268,2.94 µM (inactive)
same,GI50,A498,15.5 µM (inactive)
same,GI50,786-0,17.7 µM (inactive)
same,GI50,HOP-92,29.4 µM (inactive)
same,GI50,RXF 393,10.1 µM (inactive)
same,GI50,Malme-3M,> 100 µM (inactive)
same,GI50,SN12C,> 100 µM (inactive)
same,GI50,SK-MEL-5,57.4 µM (inactive)
same,GI50,HCT-15,70.5 µM
same,GI50,NCI-H460,21.3 µM (inactive)
same,GI50,OVCAR-5,> 100 µM (inactive)
same,GI50,NCI-H522,4.41 µM (inactive)
same,GI50,RPMI-8226,6.78 µM (inactive)
same,GI50,OVCAR-8,25 µM (inactive)
same,GI50,SNB-75,1.76 µM (inactive)
same,GI50,SK-OV-3,19.3 µM (inactive)
same,GI50,LXFL 529,16.5 µM (inactive)
same,GI50,CCRF-CEM,0.853 µM (active)
same,GI50,DMS-114,8.18 µM (inactive)
same,GI50,MOLT-4,3.94 µM (inactive)
same,GI50,M19-MEL,> 100 µM (inactive)
same,GI50,HOP-62,> 100 µM (inactive)
same,GI50,SNB-19,13.6 µM (inactive)
same,GI50,HCT-116,22 µM (inactive)
same,GI50,HOP-18,11 µM (inactive)
same,GI50,LOX IMVI,15.1 µM (inactive)
same,GI50,SK-MEL-2,91.6 µM (inactive)
same,GI50,OVCAR-3,12.7 µM (inactive)
same,GI50,DMS-273,27.5 µM (inactive)
same,GI50,SW-620,73.5 µM (inactive)
same,GI50,OVCAR-4,15 µM (inactive)
same,GI50,U-251,14 µM (inactive)
same,GI50,NCI-H23,10.8 µM (inactive)
same,GI50,EKVX,42.6 µM (inactive)
same,GI50,KM-20L2,> 100 µM (inactive)
same,GI50,SNB-78,> 100 µM (inactive)
same,GI50,UACC-62,53.3 µM (inactive)
same,GI50,HT-29,62.5 µM (inactive)
same,GI50,RXF 631,29.9 µM (inactive)
same,GI50,XF498,> 100 µM (inactive)
same,GI50,IGROV-1,8.39 µM (inactive)
same,GI50,M14,> 100 µM (inactive)
same,GI50,TK-10,19.2 µM (inactive)
same,GI50,SF-539,13.8 µM (inactive)
same,GI50,HCC 2998,> 100 µM (inactive)
same,GI50,K562,56 µM (inactive)
same,GI50,SF-295,14 µM (inactive)
same,GI50,A549,18.6 µM (inactive)
same,GI50,DLD-1,11.2 µM (inactive)
same,GI50,UO-31,1.86 µM (inactive)
same,GI50,COLO 205,> 100 µM (inactive)
same,GI50,SK-MEL-28,30.3 µM (inactive)

# From ChEMBL document CHEMBL1201862, “PubChem BioAssay data set” (2004)
